We go through 29 molecules from patent US8840849B2, “Permeation device and method for reducing aqueous boundary layer thicknesses” (Pion, Inc., priority 2004, dated 2014).

A short description of data set [1]: in vitro. From the text: Additionally, those molecular entities that are footnoted as “2” had permeability measurements obtained in an aqueous buffer and a buffer having 20 percent acetonitrile added thereto. For this example, a PAMPA Evolution instrument from pION INC of Woburn, Mass.
Solution pH was adjusted using a universal buffer as well as a buffer solution having a pH of 7.4 and containing a chemical scavenger to simulate serum proteins, which can be obtained from pION INC of Woburn, Mass. […] Donor and acceptor microtitre plates with 96 compartments were also employed for this example. The acceptor plate was obtained from Millipore Corporation of Billerica, Mass.
This approach for determining Pe is often referred to as the pKa^FLUX method.
As indicated above, the acceptor solutions contained a surfactant in order to mimic some of the function of serum proteins.
When not being stirred, a PAMPA sandwich was formed and permitted to incubate in the GUT-BOX at about 23° C. for up to several hours in an atmosphere saturated in humidity and scrubbed free of oxygen and carbon dioxide. Preferably, incubation was performed for up to about four hours. […] For example, the stirring members in FIG. 10 can be magnetized flippers that are controlled by a magnetic stirrer in the GUT-BOX, which causes the members to rotate about a horizontal axis. A speed dial for the magnetic stirrer, as described above, can be calibrated in units of thickness of the expected boundary layer rather than as standard units such as rpm.
After a permeation time in the GUT-BOX was reached, the PAMPA sandwich could then be separated and the donor and acceptor compartments studied for the amount of entity present. The amount of entity present was determined from UV measurements compared to UV spectra obtained from reference standards. The reference UV spectra were performed in a range from about 230 to 500 nanometers (nm). Moreover, mass balance was used to determine the amount of material retained by the porous support and DOUBLE-SINK GIT-0 lipid as generally described by Avdeef et al., Eur. J. Pharm.
The determination of Pe also accounted for the porous support area and its porosity. In particular, the support area of 0.3 centimeters squared (cm^2) was multiplied by the apparent porosity (εa) of the support, which was about 0.76, such as generally described by Nielsen et al., Eur. J. Pharm.
The majority of the data in Tables 1 through 5 is from unstirred assays and those stirred at about 186 rpm. […] The maximum speed used for these entities was 622 rpm.
Again, several entities were studied in a buffer comprising about 20 percent acetonitrile. These entities are footnoted as “1” in Tables 1 through 5. […] Tables 1 through 5 are provided below with Table 1 at 0 rpm, Table 2 stirred at 49 rpm, Table 3 stirred at 118 rpm, Table 4 stirred at 186 rpm and Table 5 stirred at 622 rpm. Tables 1 through 5 also include the standard deviation (SD) of determined Pu values.
The boundary layer thickness (h) in Tables 1 through 5 can be determined by […] of diffusion, which is
Pu values derived at various stirring speeds by using the pKa^FLUX method, as described above, were also subjected to a hydrodynamic analysis using the equation Pu=Kν^α in a logarithmic form. For example, FIG. 13 provides a plot of the logarithm of Pu versus the logarithm of ν comprising 36 measurements based on 14 molecular entities studied at several different stirring speeds. The intercept in such a plot is the logarithm of the stirring efficiency factor (K) with the slope being the hydrodynamic factor (α).

The subject of data set [2] is Caco-2 type cells. The conditions noted are these: testosterone data at 22° C., Adson et al.; dashed line FIG. 15; cited from earlier work.
The conditions of data set [3]: testosterone at 37° C., Karlsson et al.; dotted curve FIG. 15; cited from earlier work.
Where [4] appears, read: PAMPA, Pu (boundary layer permeability).
Setting [5] is: 0 rpm (unstirred), aqueous buffer, pKa^FLUX method.
The mark [6] stands for this setting: PAMPA, Pu (boundary layer permeability), 0 rpm (unstirred), aqueous buffer, pKa^FLUX method.

Molecules are shown by their SMILES. Structures can show the parent of a compound that is named as a salt.

A word on the Papp: it is the rate of passage across a membrane or cell layer, normalised by area and donor concentration. Read a low Papp as slow passage. As to `O=C(O)c1ccc2ccccc2c1` [2-naphthoic acid], the apparent permeability coefficient (Papp) at 50 µM in data set [1] (setting [4]) came out at 5950 nm/s. Take `O=C(O)Cc1cccc(O)c1` [3-hydroxyphenylacetic acid]: the apparent permeability coefficient (Papp) at 50 µM in data set [1] (setting [4]) was 500 nm/s. In the case of `CCCCN1CCN(c2cc3c(cc2F)c(=O)c(C(=O)O)cn3C2CC2)CC1C` (stereo not shown) [4′N-Bu-3′-Me-ciprofloxacin], in data set [1] (setting [5]), the “Pu (boundary layer permeability)” value is listed as 23. Same read-out and setting: with `CCN1CCN(c2cc3c(cc2F)c(=O)c(C(=O)O)cn3C2CC2)CC1C` (stereo not shown) [4′N-Et-3′-Me-ciprofloxacin] the figure was 53; with `CCCN1CCN(c2cc3c(cc2F)c(=O)c(C(=O)O)cn3C2CC2)CC1C` (stereo not shown) [4′N-Pr-3′-Me-ciprofloxacin], 40.

On to `CCCC(=O)Nc1ccc(OCC(O)CNC(C)C)c(C(C)=O)c1` (stereo not shown) [Acebutolol, acebutolol], for which the Papp at 50 µM in data set [1] (setting [4]) is 630 nm/s. Take `CCOC(=O)C1=C(COCCN)NC(C)=C(C(=O)OC)C1c1ccccc1Cl` (stereo not shown) [Amlodipine, amlodipine-maleate]: in data set [1] (setting [4]), the apparent permeability (Papp) at 50 µM was found to be 13800 nm/s. For `COc1ccc(CCN2CCC(Nc3nc4ccccc4n3Cc3ccc(F)cc3)CC2)cc1` [Astemizole, astemizole], the Papp at 50 µM in data set [1] (setting [4]) came out at 7460 nm/s. In data set [1] (PAMPA), `C[C@@H](CO)NC(=O)[C@@H]1C=C2c3cccc4[nH]cc(c34)C[C@H]2N(C)C1` [Ergonovine, ergonovine] showed an apparent permeability (Papp) at 50 µM of 250 nm/s. `CC(C)Cc1ccc(C(C)C(=O)O)cc1` (stereo not shown) [Ibuprofen, ibuprofen] registered a Papp at 50 µM in data set [1] (setting [4]) of 400 nm/s. In the case of `CCC(C)n1ncn(-c2ccc(N3CCN(c4ccc(OCC5COC(Cn6cncn6)(c6ccc(Cl)cc6Cl)O5)cc4)CC3)cc2)c1=O` (stereo not shown) [Itraconazole, itraconazole], the “Pu (boundary layer permeability)” value in data set [1] (PAMPA, 50 µM) amounted to 2210. This molecule also showed a Papp at 50 µM in data set [1] (setting [4]) of 13600 nm/s. Molecule `Cc1c(OCC(F)(F)F)ccnc1C[S+]([O-])c1nc2ccccc2[nH]1` (stereo not shown) [Lansoprazole, lansoprazole] gave a Papp at 50 µM in data set [1] (setting [4]) of 350 nm/s. `Clc1ccc(COC(Cn2ccnc2)c2ccc(Cl)cc2Cl)c(Cl)c1` (stereo not shown) [Miconazole, miconazole-nitrate]: the “Pu (boundary layer permeability)” value in data set [1] (PAMPA, 50 µM) is 1520. Further, the Papp at 50 µM in data set [1] (setting [4]) is 16900 nm/s. The molecule `CCn1cc(C(=O)O)c(=O)c2ccc(C)nc21` [Nalidixic acid, nalidixic acid] gave a Papp at 50 µM in data set [1] (setting [4]) of 440 nm/s.

As for `O=C1C[C@@H](c2ccc(O)cc2)Oc2cc(O)cc(O)c21` [Naringenin, naringenin], the Papp at 50 µM in data set [1] (setting [4]) is 390 nm/s. In data set [1] (setting [4]), `COC(=O)C1=C(C)NC(C)=C(C(=O)OCCN(C)Cc2ccccc2)C1c1cccc([N+](=O)[O-])c1` (stereo not shown) [Nicardipine, nicardipine] returned a Papp at 50 µM of 12500 nm/s. The molecule `CNCCC=C1c2ccccc2CCc2ccccc21` [Nortriptyline, nortriptyline-HCl] yielded a Papp at 50 µM in data set [1] (setting [4]) of 600 nm/s. With `Cc1nccn1CC1CCc2c(c3ccccc3n2C)C1=O` (stereo not shown) [Ondansetron, ondansetron], in data set [1] (PAMPA), the “Pu (boundary layer permeability)” value is reported as 6949. For the same molecule, the apparent permeability coefficient (Papp) at 50 µM in data set [1] (setting [4]) worked out at 590 nm/s.

In turn, `O=C1NC(=O)C(c2ccccc2)(c2ccccc2)N1` [Phenytoin, phenytoin-Na] yielded a Papp at 50 µM in data set [1] (setting [4]) of 260 nm/s. Same read-out and setting: next, `CN1C(C(=O)Nc2ccccn2)=C(O)c2ccccc2S1(=O)=O` [Piroxicam, piroxicam]: 310 nm/s; `COc1cc2nc(N3CCN(C(=O)c4ccco4)CC3)nc(N)c2cc1OC` [Prazosin, prazosin-HCl]: 380 nm/s.

For the molecule `CC(C)NCC(O)COc1cccc2ccccc12` (stereo not shown) [Propranolol, propranolol-HCl], the Papp at 50 µM was 410 nm/s in data set [1] (setting [6]); 3690 nm/s in data set [1] (PAMPA, Pu (boundary layer permeability), stirred at 49 rpm, aqueous buffer); 6010 nm/s in data set [1] (PAMPA, Pu (boundary layer permeability), stirred at 118 rpm, aqueous buffer); 9510 nm/s in data set [1] (PAMPA, Pu (boundary layer permeability), stirred at 186 rpm, aqueous buffer); 31100 nm/s in data set [1] (PAMPA, Pu (boundary layer permeability), stirred at 622 rpm, aqueous buffer).

As for `CNCCCC1c2ccccc2C=Cc2ccccc21` [Protriptyline, protriptyline-HCl], the Papp at 50 µM in data set [1] (setting [4]) is 21500 nm/s. Same read-out and setting: with `O=C(O)c1ccccc1O` [Salicylic acid, salicylic acid] the figure was 370 nm/s; with `CC(C)(C)c1ccc(C(O)CCCN2CCC(C(O)(c3ccccc3)c3ccccc3)CC2)cc1` (stereo not shown) [Terfenadine, terfenadine], 24400 nm/s. As to `CCOC(=O)C1=C(CSCCN)NC(C)=C(C(=O)OC)C1c1cccc([N+](=O)[O-])c1` (stereo not shown) [Tiamdipine, tiamdipine], the “Pu (boundary layer permeability)” value in data set [1] (PAMPA) stood at 951. Consider `CC(=O)CC(c1ccccc1)c1c(O)c2ccccc2oc1=O` (stereo not shown) [Warfarin, warfarin], for which the Papp at 50 µM in data set [1] (setting [6]) came out at 700 nm/s. Molecule `CN(C)C/C=C(/c1ccc(Br)cc1)c1cccnc1` [Zimelidine, zimelidine] had an apparent permeability (Papp) at 50 µM in data set [1] (setting [4]) of 16700 nm/s. Take `C[C@]12CC[C@H]3[C@@H](CCC4=CC(=O)CC[C@@]43C)[C@@H]1CC[C@@H]2O` [testosterone]: the Daq in data set [2] is 5e-06 cm/s; in data set [3], 7.84e-06 cm/s.
